Source: PubChem BioAssay (NCI)
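Cells were grown in 96-well plates and exposed to each compound for 48 hours at five concentrations; endpoints were interpolated linearly between bracketing concentrations, or set to the highest concentration if not reached. TGI marks complete inhibition of growth.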

Tests used:
Assay in all cases: DTP human tumour cell line panel, 48 h
HOP-92 NSCLC = tested on: HOP-92 NSCLC
IGROV1 ovarian = tested on: IGROV1 ovarian
NCI/ADR-RES ovarian = tested on: NCI/ADR-RES ovarian
U251 CNS = tested on: U251 CNS
SK-MEL-2 melanoma = tested on: SK-MEL-2 melanoma
UACC-62 melanoma = tested on: UACC-62 melanoma
K-562 leukemia = tested on: K-562 leukemia
T-47D breast = tested on: T-47D breast
HCT-15 colon = tested on: HCT-15 colon
SF-268 CNS = tested on: SF-268 CNS

Row | SMILES | TGI (HOP-92 NSCLC) [µM] | TGI (IGROV1 ovarian) [µM] | TGI (NCI/ADR-RES ovarian) [µM] | TGI (U251 CNS) [µM] | TGI (SK-MEL-2 melanoma) [µM] | TGI (UACC-62 melanoma) [µM] | TGI (K-562 leukemia) [µM] | TGI (T-47D breast) [µM] | TGI (HCT-15 colon) [µM] | TGI (SF-268 CNS) [µM]
1 | CCOc1ccc(N2C(=O)NC3(c4ccccc4)N(C)C(=O)N(C)C23c2ccccc2)cc1 (configuration not stated) | > 100 | > 100 | > 100 | > 100 | > 100 | > 100 | > 100 |  |  | 
2 | Brc1c2c(c(Br)c3nsnc13)N=S=N2 | 44.8 | > 60.7 | 79.8 | 46.7 | 51 | 33.5 | 33.3 | > 66.6 | 60 | 75.4
3 | OCC1C2CCC3(OCCO3)C12 (configuration not stated) | > 100 | > 100 | > 100 | > 100 | > 100 | 33 | > 100 |  | > 100 | > 100
4 | CCOC(=O)c1cc(C2=CCNC2=O)c(-c2cc(C)no2)[nH]1 |  | > 100 | > 100 | > 100 | > 100 | > 100 | > 100 | > 100 | > 100 | > 100
5 | C=C1C2C[C@@H]3O[C@H]4C[C@H]5O[C@@]6(C[C@@H]7O[C@]8(C[C@H](C)[C@@H]9O[C@@H]%10CC(C=O)O[C@@H]%10C[C@@H]9O8)C[C@H](C)[C@@H]7O6)C[C@H]5O[C@H]4[C@H](C)[C@H]3OC(=O)C[C@H]3CC[C@@H]4OC5[C@H]6O[C@]7(CC[C@H]8CC(=C)[C@H](CC[C@@H](C[C@H]1C)O2)O8)CC6O[C@@H]5[C@@H](O7)[C@H]4O3 (some centres not stated) | > 0.42 | > 1 |  | > 1 |  | > 1 | > 1 | > 1 | 0.00609 | 
6 | CCOc1cc(/C=N/c2nc3cc4sc(/N=C/c5ccc(O)c(OCC)c5)nc4cc3s2)ccc1O | > 100 | > 100 | > 100 | > 100 | > 100 | > 100 | > 100 | > 100 | > 100 | > 100
7 | Clc1cc2nc(C3CCCCO3)[nH]c2cc1Cl (configuration not stated) | > 100 | > 100 | > 52.1 | > 96.7 | > 100 | > 100 | > 100 | > 93.9 | > 100 | > 100
8 | Cc1ccc(NC(=O)CC(=O)N2N=C(N3CCCCC3)CC2c2ccccc2)cc1 (configuration not stated) | > 100 | > 100 | > 100 | > 100 | > 100 | > 100 |  | > 100 | > 100 | > 100
9 | CSCCC(NC(=O)Cc1ccc(C(=O)c2ccccc2)cc1)C(=O)N1CCN(CCCCN2c3ccccc3Sc3cc(N=[N+]=[N-])ccc32)CC1 (configuration not stated) | > 100 | > 100 |  | > 100 | > 100 | > 100 | > 100 |  | > 100 | > 100
10 | COc1ccc(C[n+]2cccc(O)c2)cc1 | > 100 | > 100 | > 100 | > 100 | > 100 | > 100 | > 100 | > 100 |  | > 100
11 | N#Cc1sc2c(c1OC(=O)c1ccc(Cl)cc1)c(=O)n(-c1ccccc1)c(=S)n2-c1ccccc1 | 66.7 | 40.5 | 73.2 | 38.6 |  | 35.6 | > 100 | > 100 | 35.4 | 97.7
12 | CCOC(=O)NC(Nc1ccc(S(=O)(=O)Nc2ccc(OC)nn2)cc1)(C(F)(F)F)C(F)(F)F | 73.2 | 54 | 59.9 | 41 |  | > 100 | > 100 | > 100 | > 100 | > 100
13 | COC(O)C(=O)c1c2c(cc3c1CCC3)CCC2 (configuration not stated) |  | > 100 | > 100 | > 100 | > 100 | > 100 | > 100 | > 100 | > 100 | > 100
14 | CC(NC(=O)C(N)CC(=O)O)C(=O)OC12CC3CC(CC(C3)C1)C2 (configuration not stated) | > 100 | > 100 | > 100 | > 100 | > 100 | > 100 | > 100 |  | > 100 | > 100
15 | Cc1cc(O)c2c(c1)C(C1OC(CO)C(O)C(O)C1O)c1cc(O)cc(O)c1C2=O (configuration not stated) | > 100 | > 100 | > 100 | > 100 |  | > 100 | > 100 | > 100 | > 100 | > 100
16 | O=C(O)CCNc1ncc2c(n1)-c1ccccc1OC2 | > 100 | > 100 | > 100 | > 100 | > 100 | > 100 | > 100 |  | > 100 | > 100
